The source of these data is patent US8952157B2, “Apoptosis-inducing agents for the treatment of cancer and immune and autoimmune diseases” (AbbVie Inc., priority 2008, dated 2015).

Where two headings read alike, the source gives them in different places.

The target of this test is GST-Bcl-2 (Homo sapiens (Human), UniProt P10415). As to the kind of experiment: Time Resolved-Fluorescence Resonance Energy Transfer (TR-FRET) Bcl-2 binding assay. The procedure, abridged:
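Competition TR-FRET: GST-Bcl-2 with fluorescent Bak peptide probe and Tb-anti-GST antibody, compounds serially diluted from 50 μM (2× start, 10% DMSO).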
On the technique in general: Time-resolved FRET reads energy transfer from a long-lived donor to a nearby acceptor.

Setting [1] is: GST-Bcl-2 1 nM, F-Bak peptide probe 100 nM, Tb-anti-GST antibody 1 nM, Ki by Wang's equation.

Chain of GST-Bcl-2 (P10415 whole entry): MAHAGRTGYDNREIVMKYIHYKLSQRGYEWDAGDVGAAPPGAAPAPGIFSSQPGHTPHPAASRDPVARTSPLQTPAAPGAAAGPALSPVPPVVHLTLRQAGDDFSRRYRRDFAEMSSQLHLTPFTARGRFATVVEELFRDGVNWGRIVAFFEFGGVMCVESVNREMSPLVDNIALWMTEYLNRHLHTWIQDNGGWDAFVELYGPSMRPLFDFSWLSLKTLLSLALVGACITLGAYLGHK

`CC1(C)CCC(CN2CCN(c3ccc(C(=O)NS(=O)(=O)c4cnc(OCC5(F)CCOCC5)c(F)c4)c(Oc4cnc(N)c(Cl)c4)c3)CC2)=C(c2ccc(Cl)cc2)C1` [Example 402, 2-[(6-amino-5-chloropyridin-3-yl)oxy]-4-(4-{[2-(4-chlorophenyl)-4,4-dimethylcyclohex-1-en-1-yl]methyl}piperazin-1-yl)-N-({5-fluoro-6-[(4-fluorotetrahydro-2H-pyran-4-yl)methoxy]pyridin-3-yl}sulfonyl)benzamide] registered a Ki under setting [1] of 0.039 nM.

In the case of `CN1CCN(Nc2ccc(S(=O)(=O)NC(=O)c3ccc(N4CCN(CC5=C(c6ccc(Cl)cc6)CC(C)(C)CC5)CC4)cc3Oc3ccc(O)cc3Cl)cc2[N+](=O)[O-])CC1` [Example 208, 2-(2-chloro-4-hydroxyphenoxy)-4-(4-{[2-(4-chlorophenyl)-4,4-dimethylcyclohex-1-en-1-yl]methyl}piperazin-1-yl)-N-({4-[(4-methylpiperazin-1-yl)amino]-3-nitrophenyl}sulfonyl)benzamide], the Ki under setting [1] turned out to be 0.261 nM.

With `CN(C)CCCNc1ccc(S(=O)(=O)NC(=O)c2ccc(N3CCN(Cc4ccccc4-c4ccc(Cl)cc4)CC3)cc2Oc2ccc3[nH]cc(CCC(=O)N4CCOCC4)c3c2)cc1[N+](=O)[O-]` [Example 70, 4-(4-((4′-chloro-1,1′-biphenyl-2-yl)methyl)piperazin-1-yl)-N-((4-((3-(dimethylamino)propyl)amino)-3-nitrophenyl)sulfonyl)-2-((3-(3-morpholin-4-yl-3-oxopropyl)-1H-indol-5-yl)oxy)benzamide], the Ki under setting [1] was found to be 20.4 nM.

As to `CC1(C)CCC(CN2CCN(c3ccc(C(=O)NS(=O)(=O)c4ccc(NCC5(F)CCOCC5)c([N+](=O)[O-])c4)c(Oc4cnc(N)c(Cl)c4)c3)CC2)=C(c2ccc(Cl)cc2)C1` [Example 363, 2-[(6-amino-5-chloropyridin-3-yl)oxy]-4-(4-{[2-(4-chlorophenyl)-4,4-dimethylcyclohex-1-en-1-yl]methyl}piperazin-1-yl)-N-[(4-{[(4-fluorotetrahydro-2H-pyran-4-yl)methyl]amino}-3-nitrophenyl)sulfonyl]benzamide], under setting [1], the inhibition constant (Ki) is under 0.01 nM.

On to `CCN1CCC(Nc2ccc(S(=O)(=O)NC(=O)c3ccc(N4CCN(CC5=C(c6ccc(Cl)cc6)CC(C)(C)CC5)CC4)cc3Oc3cccc(Cl)c3)cc2[N+](=O)[O-])CC1` [Example 174, 2-(3-chlorophenoxy)-4-(4-{[2-(4-chlorophenyl)-4,4-dimethylcyclohex-1-en-1-yl]methyl}piperazin-1-yl)-N-({4-[(1-ethylpiperidin-4-yl)amino]-3-nitrophenyl}sulfonyl)benzamide], for which affinity under setting [1] was put at a Ki of 0.037 nM.

`CC1(C)CCC(CN2CCN(c3ccc(C(=O)NS(=O)(=O)c4ccc(NCCCN5CCOCC5)c([N+](=O)[O-])c4)c(Oc4cccc(Cl)c4)c3)CC2)=C(c2ccc(Cl)cc2)C1` [Example 128, 2-(3-chlorophenoxy)-4-(4-{[2-(4-chlorophenyl)-4,4-dimethylcyclohex-1-en-1-yl]methyl}piperazin-1-yl)-N-({4-[(3-morpholin-4-ylpropyl)amino]-3-nitrophenyl}sulfonyl)benzamide] yielded a Ki under setting [1] of 0.064 nM.

In turn, `CC1(C)CCC(CN2CCN(c3ccc(C(=O)NS(=O)(=O)c4cnc(N[C@H]5CC[C@H](N6CCOCC6)CC5)c(Br)c4)c(Oc4cc5cc[nH]c5cc4F)c3)CC2)=C(c2ccc(Cl)cc2)C1` [Example 307, Trans-N-({5-bromo-6-[(4-morpholin-4-ylcyclohexyl)amino]pyridin-3-yl}sulfonyl)-4-(4-{[2-(4-chlorophenyl)-4,4-dimethylcyclohex-1-en-1-yl]methyl}piperazin-1-yl)-2-[(6-fluoro-1H-indol-5-yl)oxy]benzamide] yielded an inhibition constant (Ki) of 0.524 nM.

In turn, `CN1CCN(Nc2ccc(S(=O)(=O)NC(=O)c3ccc(N4CCN(CC5=C(c6ccc(Cl)cc6)CC(C)(C)OC5)CC4)cc3Oc3cccc(Cl)c3)cc2[N+](=O)[O-])CC1` [Example 185, 2-(3-chlorophenoxy)-4-(4-{[4-(4-chlorophenyl)-6,6-dimethyl-5,6-dihydro-2H-pyran-3-yl]methyl}piperazin-1-yl)-N-({4-[(4-methylpiperazin-1-yl)amino]-3-nitrophenyl}sulfonyl)benzamide] returned a Ki under setting [1] of 0.083 nM.

As usually defined, the Ki is the dissociation constant of the complex between target and ligand, obtained from inhibition or displacement. A high value points to lower affinity.
